Laboratory results reported in patent US9073926B2, “Heterocyclic compounds containing a pyrrolopyridine or benzimidazole core” (Boehringer Ingelheim International GmbH, priority 2009, dated 2015).

Experiments:
Human RSK2 = Human RSK2 (Homo sapiens (Human), UniProt P51812); experiment: Human RSK2 Assay (Kinase Glo Plus, residual ATP); type: biochemical; conditions: 0.75 nM His-RSK2, 0.75 μM ATP, 1.0 μM S6 Kinase/RSK Substrate Peptide 1
In short: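 His-RSK2 (0.75 nM) with 0.75 μM ATP and 1.0 μM S6 kinase/RSK substrate peptide in HEPES pH 7.5 buffer with Mg/Mn, 90 min at 28° C. Residual ATP read by Kinase Glo Plus luminescence; percent of control fitted to a 4-parameter logistic, IC50 taken as inflection point.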

NHE1 = conditions: Cuello et al., Mol Pharmacol 71:799-806, 2007; cited from earlier work

Sequence of Human RSK2 (P51812 whole entry): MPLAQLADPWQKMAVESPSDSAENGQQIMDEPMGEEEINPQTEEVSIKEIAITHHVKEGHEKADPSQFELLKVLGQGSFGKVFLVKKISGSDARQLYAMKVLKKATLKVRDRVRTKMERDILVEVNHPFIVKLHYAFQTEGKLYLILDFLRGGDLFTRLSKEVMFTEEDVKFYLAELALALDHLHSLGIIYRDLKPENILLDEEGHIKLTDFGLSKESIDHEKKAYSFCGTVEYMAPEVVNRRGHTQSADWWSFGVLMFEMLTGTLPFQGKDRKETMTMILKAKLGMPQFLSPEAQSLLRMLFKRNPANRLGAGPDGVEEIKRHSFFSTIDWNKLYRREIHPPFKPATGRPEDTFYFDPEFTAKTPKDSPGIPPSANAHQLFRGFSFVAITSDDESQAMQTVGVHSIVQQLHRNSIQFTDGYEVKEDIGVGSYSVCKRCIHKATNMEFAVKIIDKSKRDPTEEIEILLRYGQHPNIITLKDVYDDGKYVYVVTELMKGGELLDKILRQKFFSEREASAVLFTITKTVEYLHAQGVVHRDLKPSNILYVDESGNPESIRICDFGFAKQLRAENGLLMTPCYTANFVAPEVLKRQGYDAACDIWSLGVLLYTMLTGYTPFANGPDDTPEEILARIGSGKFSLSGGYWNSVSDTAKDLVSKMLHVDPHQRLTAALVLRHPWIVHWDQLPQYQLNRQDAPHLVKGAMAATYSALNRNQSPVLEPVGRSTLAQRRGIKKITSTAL

Row | Structure (SMILES) | IC50 (Human RSK2) | basal NHE1 activity (NHE1) | phosphorylation of NHE1 and phenylephrine-induced enhanced NHE1 activity (NHE1)
1 | CC1CNC(=O)c2cc3ccc(C(=O)Nc4cccnc4)nc3n21 (stereo not drawn) [Example 101, 9-methyl-6-oxo-N-(pyridin-3-yl)-6,7,8,9-tetrahydropyrido[3′,2′:4,5]pyrrolo[1,2-a]pyrazine-2-carboxamide] | 0.12 µM | – | –
2 | CNC(=O)c1csc(NC(=O)c2ccc3cc4n(c3n2)C(C)CNC4=O)n1 (stereo not drawn) [Example 102, 9-methyl-N-[4-(methylcarbamoyl)-1,3-thiazol-2-yl]-6-oxo-6,7,8,9-tetrahydropyrido[3′,2′:4,5]pyrrolo[1,2-a]pyrazine-2-carboxamide] | 0.13 µM | – | –
3 | CC1CNC(=O)c2cc3ccc(C(=O)Nc4nccs4)nc3n21 (stereo not drawn) [Example 103, 9-methyl-6-oxo-N-(1,3-thiazol-2-yl)-6,7,8,9-tetrahydropyrido[3′,2′:4,5]pyrrolo[1,2-a]pyrazine-2-carboxamide] | 0.33 µM | – | –
4 | Cn1cc(NC(=O)c2ccc3cc4n(c3n2)CCCNC4=O)nc1C(=O)NC1CCCC1 [Example 104, N-[2-(cyclopentylcarbamoyl)-1-methyl-1H-imidazol-4-yl]-6-oxo-7,8,9,10-tetrahydro-6H-pyrido[3′,2′:4,5]pyrrolo[1,2-a][1,4]diazepine-2-carboxamide] | 0.0016 µM | – | –
5 | Cc1ccc(-c2c(C(=O)CF)n(CCCO)c3ncnc(N)c23)cc1 [fmk] | – | without affecting basal activity | inhibit phosphorylation of NHE1
